Data reported in PubChem BioAssay (NCI).
Values joined by “and” are separate entries in the source; they are usually repeats but may differ in a detail not shown here. Equal entries are not always repeated.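 Five compound concentrations were applied to cells in 96-well plates for 48 hours; endpoints were derived by simple linear interpolation of the resulting dose-response curve. GI50 is the concentration that inhibits growth by half. At the TGI there is no net growth.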

Legend:
Experiment in all cases: NCI tumour cell line growth inhibition, 48 h
SW-620 colon = tested on: SW-620 colon
OVCAR-3 ovarian = tested on: OVCAR-3 ovarian
UACC-257 melanoma = tested on: UACC-257 melanoma
SK-MEL-5 melanoma = tested on: SK-MEL-5 melanoma
M14 melanoma = tested on: M14 melanoma
HOP-62 NSCLC = tested on: HOP-62 NSCLC
OVCAR-8 ovarian = tested on: OVCAR-8 ovarian
SK-OV-3 ovarian = tested on: SK-OV-3 ovarian
HOP-92 NSCLC = tested on: HOP-92 NSCLC
ACHN renal = tested on: ACHN renal

SMILES | GI50 (SW-620 colon) | TGI (SW-620 colon) | GI50 (OVCAR-3 ovarian) | TGI (OVCAR-3 ovarian) | GI50 (UACC-257 melanoma) | TGI (UACC-257 melanoma) | GI50 (SK-MEL-5 melanoma) | TGI (SK-MEL-5 melanoma) | GI50 (M14 melanoma) | TGI (M14 melanoma) | GI50 (HOP-62 NSCLC) | TGI (HOP-62 NSCLC) | GI50 (OVCAR-8 ovarian) | TGI (OVCAR-8 ovarian) | GI50 (SK-OV-3 ovarian) | TGI (SK-OV-3 ovarian) | GI50 (HOP-92 NSCLC) | TGI (HOP-92 NSCLC) | GI50 (ACHN renal) | TGI (ACHN renal)
COC1=C(OC)C(=O)C(CCCCCCCCCCO)=C(C)C1=O | 14.7 µM | 30.9 µM | 10200 nM | 24.7 µM | 1840 nM | 4.48 µM | 5920 nM | 19.1 µM | 15000 nM | 31 µM | 16 µM | 29.5 µM | 3.76 µM | 16.2 µM | 15.7 µM | 29.2 µM | 2530 nM | 9.84 µM | 3350 nM | 11.2 µM
COc1ccc(S(=O)(=O)N2CCNCC2)cc1OC | > 100 µM | > 100 µM | > 100000 nM | > 100 µM | > 100000 nM | > 100 µM | > 100000 nM | > 100 µM | > 100000 nM | > 100 µM | > 100 µM | > 100 µM | > 100 µM | > 100 µM | > 100 µM | > 100 µM | > 100000 nM | > 100 µM | > 100000 nM | > 100 µM
Cc1cc2c(c(=O)o1)C1=S(SC(c3ccccc3)=C1)S2 (stereo not given) | – | > 100 µM | – | 75.2 µM | – | > 100 µM | – | > 100 µM | – | > 100 µM | – | 45.5 µM | – | > 100 µM | – | 52.6 µM | – | 83 µM | – | > 100 µM
O=S(=O)(NCCCNc1cc(-c2cn(-c3ccccc3)nc2-c2cccc(O)c2)ccn1)c1ccc(F)cc1 | 3.76 µM | 14.2 µM | 3280 nM | 14.9 µM | 2920 nM | 7.26 µM | 3060 nM | 10.1 µM | 2850 nM | 8.75 µM | 4.98 µM | 19.3 µM | 4.15 µM | 18.3 µM | 4.44 µM | 23.5 µM | 2660 nM | 7.62 µM | 3520 nM | 33.8 µM
O=C(CO)C1CC2C=CC1C2 (stereo not given) | – | > 100 µM | – | > 100 µM | – | > 100 µM | – | > 100 µM | – | > 100 µM | – | > 100 µM | – | > 100 µM | – | > 100 µM | – | > 100 µM | – | > 100 µM
COc1c(CC=C(C)C)c(O)c(C(CC(C)C)c2c(O)c(CC=C(C)C)c(O)c(C(C)=O)c2O)c(O)c1C(C)=O (stereo not given) | – | 5.8 µM | – | 12.5 µM | – | 5.11 µM | – | 5.04 µM | – | 5.72 µM | – | 3.96 µM | – | 10.3 µM | – | 11.1 µM | – | 0.562 µM | – | 10.9 µM
N#Cc1c(NC(=O)c2ccccc2F)sc2c1CCCC2 | 8.77 µM | > 25 µM | > 25000 nM | > 25 µM | > 25000 nM | > 25 µM | > 22000 nM | > 25 µM | > 25000 nM | > 25 µM | > 25 µM | > 25 µM | > 25 µM | > 25 µM | > 25 µM | > 25 µM | > 25000 nM | > 25 µM | > 25000 nM | > 25 µM
CC1=NNC(=S)NCCCN2CCN(CCCNC(=S)NN=C(C)C=NNC(=S)NCCCN3CCN(CCCNC(=S)NN=C1)CC3)CC2 | – | > 100 µM | – | > 100 µM | – | > 100 µM | – | > 100 µM | – | > 100 µM | – | > 100 µM | – | > 100 µM | – | > 100 µM | – | > 100 µM | – | > 100 µM
Cc1ccc(NC(=O)/C(C#N)=C/c2ccccc2)c(C)c1 | – | > 100 µM | – | > 100 µM | – | > 100 µM | – | > 100 µM | – | > 100 µM | – | > 100 µM | – | > 100 µM | – | > 100 µM | – | > 100 µM | – | > 100 µM
CC1CCN(CCOc2ccc(CNc3ccc4nc(CCC5CCCCC5)[nH]c4c3)cc2)CC1 | 1.7 µM | 3.35 µM | 1610 nM | 3.12 µM | 1880 nM | 3.74 µM | 1700 nM | 3.08 µM | 1560 nM | 3.01 µM | 1.68 µM | 3.21 µM | 1.96 µM | 4.24 µM | 1.81 µM | 3.4 µM | 643 nM | 2.23 µM | 1760 nM | 3.22 µM
c1ccc(CN2COc3c(ccc4c5c(ccc34)CN(Cc3ccccc3)CO5)C2)cc1 | – | > 100 µM | – | > 100 µM | – | > 100 µM | – | > 100 µM | – | > 100 µM | – | > 100 µM | – | > 100 µM | – | > 100 µM | – | > 100 µM | – | > 100 µM
CC(C)OC(=O)C1Cc2c([nH]c3ccccc23)C(c2ccccc2)N1 (stereo not given) | – | > 100 µM | – | > 100 µM | – | > 100 µM | – | > 100 µM | – | > 100 µM | – | 69.9 µM | – | > 100 µM | – | > 100 µM | – | > 100 µM | – | > 100 µM
CC(=O)N(O)c1ccc(/C=C/c2ccccc2)cc1 | 1.15 µM | > 100 µM | 2550 nM | 29.2 µM | 1230 nM | 5.17 µM | 6050 nM | > 100 µM | 3350 nM | > 100 µM | 1.98 µM | > 35.7 µM | 1.59 µM | > 52.5 µM | 2.04 µM | 8.77 µM | 1140 nM | 3.65 µM | 260 nM | 2.08 µM
NC(=O)CC(N)c1nn[nH]n1 (stereo not given) | – | > 100 µM | – | > 100 µM | – | > 100 µM | – | > 100 µM | – | > 100 µM | – | > 100 µM | – | > 100 µM | – | > 100 µM | – | > 100 µM | – | > 100 µM
C=C1C=CC2(Br)OC3CC(C)(Cl)C(Br)CC13C2(C)C (stereo not given) | – | 56 µM | – | 40.8 µM | – | 42.8 µM | – | 31 µM | – | 53.2 µM | – | 48 µM | – | 77.1 µM | – | > 100 µM | – | 50.8 µM | – | 56.2 µM
COc1c(OC(C)C)cc2cc(O)c(C(=O)NC3Cc4ccc(c(Cl)n4)O[C@@H]4C=C5C#C/C(=C\C#CC6OC56C4OC4CC(C)(O)C(O)C(C)O4)C(OC4CC(O)C(N(C)C)C(C)O4)COC3=O)cc2c1OC (stereo not given in full) | 0.165 µg/mL | 37.5 µg/mL | > 36.3 µM and 21.3 µg/mL | > 36.3 µM and 37.5 µg/mL | 21.9 µM and 1.08 µg/mL | > 36.3 µM and 37.5 µg/mL | > 36.3 µM and 0.546 µg/mL | > 36.3 µM and 10.1 µg/mL | 32.7 µM and 2.8 µg/mL | > 36.3 µM and 21.4 µg/mL | 10.3 µM and 0.402 µg/mL | > 36.3 µM and 1.74 µg/mL | 26.7 µM and 1.18 µg/mL | > 36.3 µM and 37.5 µg/mL | 2.75 µg/mL | 37.5 µg/mL | 0.482 µg/mL | > 36.3 µM and 2.94 µg/mL | 9.33 µM and 0.303 µg/mL | > 36.3 µM and 5.69 µg/mL
O=c1[nH]c2ccccc2n1C1CCN(CCCC(c2ccc(F)cc2)c2ccc(F)cc2)CC1 | 1.75 µM and 4.5 µM | 3.41 µM and 13.8 µM | 1700 nM and 4370 nM | 3.13 µM and 13.1 µM | 1580 nM and 2830 nM | 3.24 µM and 7.83 µM | 1420 nM and 2130 nM | 2.74 µM and 4.8 µM | 1830 nM | 3.72 µM and 8.19 µM | 1.53 µM | 2.89 µM and 22.3 µM | 1.58 µM and 9.14 µM | 3.28 µM and 24.3 µM | 1.56 µM | 3.12 µM and 24.9 µM | 252 nM | 1.71 µM and 14 µM | 1660 nM and 10900 nM | 3.16 µM and 24.7 µM
O=C1/C(=C/c2ccccc2[N+](=O)[O-])COc2ccc(O)cc21 | 0.448 µM | 1.81 µM | 523 nM | 1.76 µM | 2160 nM | 7.13 µM | 1760 nM | 4.07 µM | 1900 nM | 4.85 µM | 5.21 µM | 19.3 µM | 2.3 µM | 47.8 µM | 5.25 µM | 17.6 µM | 2750 nM | 12.5 µM | 740 nM | 2.13 µM
COc1ccc(COc2cc3oc(=O)c4cc(C(C)O)ccc4c3cc2OC)cc1 (stereo not given) | > 22.4 µM | > 100 µM | 17100 nM | 63.1 µM | 19700 nM | > 74.6 µM | 12100 nM | > 40.7 µM | > 22500 nM | > 100 µM | 8.15 µM | 29.4 µM | 14.8 µM | 52.2 µM | 13.2 µM | 45.8 µM | 4220 nM | 33.5 µM | 23100 nM | > 100 µM
CN(C)c1nc(N)c(C#N)c(C#N)c1C#N | – | > 10 µM | – | > 10 µM | – | > 10 µM | – | > 10 µM | – | > 10 µM | – | > 10 µM | – | > 10 µM | – | > 10 µM | – | > 10 µM | – | > 10 µM
Nc1nc(-c2ccc(Cl)cc2)nc2c1sc(=S)n2-c1ccccc1 | 6.45 µM | 82.9 µM | 2750 nM | 7.64 µM | 6580 nM | 32 µM | 2910 nM | 10.1 µM | 7870 nM | 38.1 µM | 3.4 µM | 11.7 µM | 5.16 µM | > 100 µM | 3.83 µM | 14.5 µM | 2370 nM | 6.25 µM | 1830 nM | 3.82 µM
Nc1nc2ccccc2c2c1S(=O)(=O)c1ccc(Cl)cc1C2=O | 1.02 µM | 2.25 µM | 1140 nM | 3.33 µM | 1960 nM | > 50 µM | 2020 nM | 30.9 µM | 2450 nM | 35.4 µM | 2.31 µM | > 50 µM | 1.54 µM | > 50 µM | 6.9 µM | 44.8 µM | 542 nM | 3.63 µM | 1380 nM | > 50 µM
